Here are results for 25 compounds from patent US20100004128A1, “HERBICIDAL ISOXAZOLINE COMPOUNDS” (SYNGENTA CROP PROTECTION, INC., priority 2006, published 2010).

The structures appear in SMILES notation.

For the test, the system named is Monocotyledonous and dicotyledonous test plants. Briefly: Herbicidal action, application pre-emergence. Type of test: in vivo. More on the design: key: 10=total damage to plant; 0=no damage to plant. Conditions: spray solution 1000 mg/l, scale 0-10; for Herbicidal action (damage score) AGSTE: Agrostis tenius; for Herbicidal action (damage score) AMARE: Amaranthus retroflexus; for Herbicidal action (damage score) DIGSA: Digitaria sanguinalis; for Herbicidal action (damage score) POATR: Poa trivialis; for Herbicidal action (damage score) SETFA: Setaria faberi; for Herbicidal action (damage score) SETIT: Setaria italica. Here is the method:
Monocotyledonous and dicotyledonous test plants were sown in sterilised standard soil in seed trays each having 96 cells. After one day (pre-emergence) or after 8 to 9 days cultivation (post-emergence) under controlled conditions in a climatic chamber (cultivation at 23/17° C., day/night; 13 hours light; 50-60% humidity; after application at 24/19° C., day/night), the plants were treated with an aqueous spray solution of 1000 mg/l of the active ingredient used (incl. 10% DMSO as solvent). The plants were grown on in the climatic chamber until the test was evaluated (10=total damage to plant, 0=no damage to plant) after 9 or 13 days.

For `COCCn1nc(C(F)[S+]([O-])C2=NOC(C)(C)C2)c(C(F)(F)F)n1` (mixture of isomers) [1.24], the “Herbicidal action (damage score) AGSTE” value was determined as 10, the “Herbicidal action (damage score) AMARE” value is 10, the “Herbicidal action (damage score) DIGSA” value is 10 and the “Herbicidal action (damage score) POATR” value was determined as 10. Also, the “Herbicidal action (damage score) SETFA” value amounted to 9.
In the case of `CC1(C)CC([S+]([O-])C(F)c2nn(C3CCCC3)nc2C(F)(F)F)=NO1` (mixture of isomers) [1.30], the “Herbicidal action (damage score) AGSTE” value worked out at 10, the “Herbicidal action (damage score) AMARE” value came out at 10, the “Herbicidal action (damage score) DIGSA” value came out at 9 and the “Herbicidal action (damage score) POATR” value was 10. Also, the “Herbicidal action (damage score) SETFA” value was found to be 8.
In the case of `C=CCn1nc(C(F)[S+]([O-])C2=NOC(C)(C)C2)c(C(F)(F)F)n1` (mixture of isomers) [1.33], the “Herbicidal action (damage score) AGSTE” value was found to be 10, the “Herbicidal action (damage score) AMARE” value stood at 4, the “Herbicidal action (damage score) DIGSA” value is on record as 10 and the “Herbicidal action (damage score) POATR” value was determined as 10. For the same compound, the “Herbicidal action (damage score) SETFA” value was 6.
Regarding `CCn1ncc(C(F)[S+]([O-])C2=NOC(C)(C)C2)n1` (mixture of isomers) [1.39], the “Herbicidal action (damage score) AGSTE” value was found to be 10, the “Herbicidal action (damage score) AMARE” value was 9, the “Herbicidal action (damage score) DIGSA” value turned out to be 9 and the “Herbicidal action (damage score) POATR” value is 10. In addition, the “Herbicidal action (damage score) SETFA” value is 9.
Regarding `CC1(C)CC([S+]([O-])C(F)c2cn(C(C)(C)C)nn2)=NO1` (mixture of isomers) [Compound No. 2.03], the “Herbicidal action (damage score) AGSTE” value is recorded as 8, the “Herbicidal action (damage score) AMARE” value was found to be 2, the “Herbicidal action (damage score) DIGSA” value came out at 9 and the “Herbicidal action (damage score) POATR” value turned out to be 4. Also, the “Herbicidal action (damage score) SETFA” value is listed as 5.
For `Cn1nnc(Br)c1C(F)[S+]([O-])C1=NOC(C)(C)C1` (mixture of isomers) [Compound No. 3.05], the “Herbicidal action (damage score) AGSTE” value stood at 10, the “Herbicidal action (damage score) AMARE” value was found to be 8, the “Herbicidal action (damage score) DIGSA” value was 10 and the “Herbicidal action (damage score) POATR” value stood at 10. The “Herbicidal action (damage score) SETFA” value turned out to be 9.
For `Cn1nc(C(F)(F)F)c(C(F)(Cl)S(=O)(=O)C2=NOC(C)(C)C2)n1` (racemic) [1.10], the “Herbicidal action (damage score) AGSTE” value is recorded as 10, the “Herbicidal action (damage score) AMARE” value was 10, the “Herbicidal action (damage score) DIGSA” value came to 10 and the “Herbicidal action (damage score) POATR” value is reported as 10. Besides, the “Herbicidal action (damage score) SETIT” value came to 10.
With `CCc1nn(CC)nc1C(F)S(=O)(=O)C1=NOC(C)(C)C1` (racemic) [1.12], the “Herbicidal action (damage score) AGSTE” value is listed as 10, the “Herbicidal action (damage score) AMARE” value is recorded as 10, the “Herbicidal action (damage score) DIGSA” value amounted to 9 and the “Herbicidal action (damage score) POATR” value is recorded as 10. The “Herbicidal action (damage score) SETFA” value came to 9.
On to `CC(C)n1nc(C(F)(F)F)c(C(F)(F)[S+]([O-])C2=NOC(C)(C)C2)n1` (racemic) [1.18], for which the “Herbicidal action (damage score) AGSTE” value turned out to be 10, the “Herbicidal action (damage score) AMARE” value is reported as 10, the “Herbicidal action (damage score) DIGSA” value is listed as 10 and the “Herbicidal action (damage score) POATR” value is listed as 10. In addition, the “Herbicidal action (damage score) SETFA” value was 9.
As to `Cc1nn(C(F)F)nc1C(F)(F)[S+]([O-])C1=NOC(C)(C)C1` (racemic) [1.22], the “Herbicidal action (damage score) AGSTE” value was found to be 10, the “Herbicidal action (damage score) AMARE” value is reported as 10, the “Herbicidal action (damage score) DIGSA” value was found to be 10 and the “Herbicidal action (damage score) POATR” value is 10. The “Herbicidal action (damage score) SETFA” value stood at 9.
With `COCCn1nc(C(F)(F)F)c(C(F)(F)[S+]([O-])C2=NOC(C)(C)C2)n1` (racemic) [1.25], the “Herbicidal action (damage score) AGSTE” value turned out to be 10, the “Herbicidal action (damage score) AMARE” value is listed as 10, the “Herbicidal action (damage score) DIGSA” value is recorded as 10 and the “Herbicidal action (damage score) POATR” value was 10. The “Herbicidal action (damage score) SETFA” value is given as 9.
Turning to `CCc1nn(C)nc1C(F)(F)[S+]([O-])C1=NOC(C)(C)C1` (racemic) [1.27], the “Herbicidal action (damage score) AGSTE” value was 10, the “Herbicidal action (damage score) AMARE” value worked out at 10, the “Herbicidal action (damage score) DIGSA” value is reported as 10 and the “Herbicidal action (damage score) POATR” value was determined as 10. For the same compound, the “Herbicidal action (damage score) SETFA” value stood at 9.
Take `CC1(C)CC(S(=O)(=O)C(F)c2nn(C3CCCC3)nc2C(F)(F)F)=NO1` (racemic) [1.28]: the “Herbicidal action (damage score) AGSTE” value worked out at 10, the “Herbicidal action (damage score) AMARE” value amounted to 9, the “Herbicidal action (damage score) DIGSA” value came out at 9 and the “Herbicidal action (damage score) POATR” value turned out to be 10. The “Herbicidal action (damage score) SETFA” value amounted to 8.
Regarding `CC1(C)CC([S+]([O-])C(F)(F)c2nn(C3CCCC3)nc2C(F)(F)F)=NO1` (racemic) [1.31], the “Herbicidal action (damage score) AGSTE” value is given as 10, the “Herbicidal action (damage score) AMARE” value came to 0, the “Herbicidal action (damage score) DIGSA” value is reported as 9 and the “Herbicidal action (damage score) POATR” value amounted to 7. In addition, the “Herbicidal action (damage score) SETFA” value was 9.
In the case of `C=CCn1nc(C(F)(F)F)c(C(F)(F)[S+]([O-])C2=NOC(C)(C)C2)n1` (racemic) [1.34], the “Herbicidal action (damage score) AGSTE” value was found to be 10, the “Herbicidal action (damage score) AMARE” value amounted to 9, the “Herbicidal action (damage score) DIGSA” value was 10 and the “Herbicidal action (damage score) POATR” value came to 10. The “Herbicidal action (damage score) SETFA” value was found to be 10.
For `Cc1nn(C)nc1C(F)(Cl)S(=O)(=O)C1=NOC(C)(C)C1` (racemic) [Compound No. 1.07], the “Herbicidal action (damage score) AGSTE” value came to 10, the “Herbicidal action (damage score) AMARE” value is on record as 9, the “Herbicidal action (damage score) DIGSA” value is 10 and the “Herbicidal action (damage score) POATR” value is reported as 10. The “Herbicidal action (damage score) SETIT” value is 9.
Turning to `Cn1nc(C(F)S(=O)(=O)C2=NOC(C)(C)C2)c(C(F)(F)F)n1` (racemic) [Compound No. 1.11], the “Herbicidal action (damage score) AGSTE” value is 10, the “Herbicidal action (damage score) AMARE” value was found to be 10, the “Herbicidal action (damage score) DIGSA” value was 10 and the “Herbicidal action (damage score) POATR” value is given as 10. Besides, the “Herbicidal action (damage score) SETIT” value stood at 10.
Turning to `CCn1nc(C(F)(F)F)c(C(F)(F)[S+]([O-])C2=NOC(C)(C)C2)n1` (racemic) [Compound No. 1.16], the “Herbicidal action (damage score) AGSTE” value worked out at 10, the “Herbicidal action (damage score) AMARE” value is 10, the “Herbicidal action (damage score) DIGSA” value worked out at 10 and the “Herbicidal action (damage score) POATR” value is on record as 10. Further, the “Herbicidal action (damage score) SETFA” value amounted to 9.
For the compound `Cc1nn(C(F)F)nc1C(F)S(=O)(=O)C1=NOC(C)(C)C1` (racemic) [Compound No. 1.19], the “Herbicidal action (damage score) AGSTE” value was determined as 10, the “Herbicidal action (damage score) AMARE” value amounted to 10, the “Herbicidal action (damage score) DIGSA” value amounted to 10 and the “Herbicidal action (damage score) POATR” value came to 10. For the same compound, the “Herbicidal action (damage score) SETFA” value came out at 10.
Consider `Cc1nn(C(F)F)nc1C(F)[S+]([O-])C1=NOC(C)(C)C1` (racemic) [Compound No. 1.21], for which the “Herbicidal action (damage score) AGSTE” value was 10, the “Herbicidal action (damage score) AMARE” value is 10, the “Herbicidal action (damage score) DIGSA” value stood at 10 and the “Herbicidal action (damage score) POATR” value is 10. In addition, the “Herbicidal action (damage score) SETFA” value was found to be 10.
`Cn1nc(C(F)(F)F)c(C(F)(F)S(=O)(=O)C2=NOC(C)(C)C2)n1` [1.09]: the “Herbicidal action (damage score) AGSTE” value is reported as 10, the “Herbicidal action (damage score) AMARE” value was 10, the “Herbicidal action (damage score) DIGSA” value is reported as 10 and the “Herbicidal action (damage score) POATR” value was 10. For the same compound, the “Herbicidal action (damage score) SETIT” value is listed as 10.
Take `CCn1nc(C(F)(F)F)c(C(F)(F)S(=O)(=O)C2=NOC(C)(C)C2)n1` [1.15]: the “Herbicidal action (damage score) AGSTE” value stood at 10, the “Herbicidal action (damage score) AMARE” value is 10, the “Herbicidal action (damage score) DIGSA” value is 10 and the “Herbicidal action (damage score) POATR” value worked out at 10. Further, the “Herbicidal action (damage score) SETFA” value is 10.
Regarding `CC(C)n1nc(C(F)(F)F)c(C(F)(F)S(=O)(=O)C2=NOC(C)(C)C2)n1` [1.17], the “Herbicidal action (damage score) AGSTE” value was 10, the “Herbicidal action (damage score) AMARE” value was found to be 10, the “Herbicidal action (damage score) DIGSA” value is recorded as 9 and the “Herbicidal action (damage score) POATR” value was found to be 10. Moreover, the “Herbicidal action (damage score) SETFA” value is listed as 10.
As for `Cc1nn(C(F)F)nc1C(F)(F)S(=O)(=O)C1=NOC(C)(C)C1` [1.20], the “Herbicidal action (damage score) AGSTE” value came out at 10, the “Herbicidal action (damage score) AMARE” value came to 10, the “Herbicidal action (damage score) DIGSA” value is listed as 10 and the “Herbicidal action (damage score) POATR” value came to 10. In addition, the “Herbicidal action (damage score) SETFA” value amounted to 9.
In the case of `COCCn1nc(C(F)(F)F)c(C(F)(F)S(=O)(=O)C2=NOC(C)(C)C2)n1` [1.23], the “Herbicidal action (damage score) AGSTE” value was found to be 10, the “Herbicidal action (damage score) AMARE” value was determined as 10, the “Herbicidal action (damage score) DIGSA” value came out at 10 and the “Herbicidal action (damage score) POATR” value stood at 10. In addition, the “Herbicidal action (damage score) SETFA” value came to 10.
